The source of these data is the supplement of paper PMC6045584.

± gives the standard deviation of the averaged measurements.

Compound in experiment [1]: COc1cc2nccc(Oc3ccc(NC(=O)C4(C(=O)Nc5ccc(F)cc5)CC4)cc3)c2cc1OC [CABOZANTINIB]
Briefly: surviving fraction relative to DMSO-only wells; higher = less growth inhibition. The conditions noted are these: exposure time: 5 days. The method, boiled down: (§1)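 Luminescence normalised to the median of DMSO-only wells defines surviving fraction, with viability read by CellTiter-Glo. Signal was recorded after 10 minutes at room temperature, once log-phase tumour cell lines seeded at 250–500 cells per well in 384-well plates had spent 24 hours settling and then five days under continuous exposure to inhibitors at 0.5, 1, 5, 10, 50, 100, 500 and 1000 nM.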

Compound in experiment [2]: CC/C(=C(\c1ccc(O)cc1)c1ccc(OCCN(C)C)cc1)c1ccccc1 [AFIMOXIFENE]
Described as above. The conditions noted are these: exposure time: 5 days. Put shortly: as §1

HCC38 BREAST: the surviving fraction stood at 1.07 ± 0.1 in experiment [1] (0.5 nM); 1.14 ± 0.12 in experiment [1] (1 nM); 1.38 ± 0.22 in experiment [1] (5 nM); 1.34 ± 0.23 in experiment [1] (10 nM); 1.13 ± 0.074 in experiment [1] (50 nM); 1.24 ± 0.067 in experiment [1] (100 nM). The surviving fraction in experiment [1] (500 nM) came to 1.22 ± 0.1; in experiment [1] (1000 nM), 1.34 ± 0.15; in experiment [2] (0.5 nM), 1.19 ± 0.1; in experiment [2] (1 nM), 1.1 ± 0.23; in experiment [2] (5 nM), 1.19 ± 0.19; in experiment [2] (10 nM), 1.2 ± 0.23. The surviving fraction in experiment [2] (100 nM) was found to be 1.13 ± 0.18; in experiment [2] (500 nM) it was 0.99 ± 0.24; in experiment [2] (1000 nM) it was 0.952 ± 0.08.

For HMLE3 BREAST, the surviving fraction in experiment [1] (0.5 nM) was 0.925 ± 0.14; in experiment [1] (1 nM) it was 0.91 ± 0.032; in experiment [1] (5 nM) it was 0.98 ± 0.023; in experiment [1] (10 nM), 0.942 ± 0.08; in experiment [1] (50 nM) it was 0.992 ± 0.07; in experiment [1] (100 nM), 0.91 ± 0.064. For the same test system, the surviving fraction turned out to be 0.72 ± 0.049 in experiment [1] (500 nM); 0.656 ± 0.0044 in experiment [1] (1000 nM); 1.06 ± 0.032 in experiment [2] (0.5 nM); 1.11 ± 0.062 in experiment [2] (1 nM); 1.2 ± 0.014 in experiment [2] (5 nM); 1.06 ± 0.05 in experiment [2] (10 nM). The surviving fraction in experiment [2] (50 nM) came to 1.12 ± 0.06; in experiment [2] (100 nM), 1.2 ± 0.12; in experiment [2] (500 nM), 1.09 ± 0.1; in experiment [2] (1000 nM), 1.13 ± 0.1.

As for G292 BONE, the surviving fraction in experiment [1] (0.5 nM) is 0.911 ± 0.047; in experiment [1] (1 nM), 0.977 ± 0.012; in experiment [1] (5 nM) it was 1.02 ± 0.078; in experiment [1] (10 nM) it was 1.02 ± 0.046; in experiment [1] (50 nM), 0.925 ± 0.04; in experiment [1] (100 nM), 0.876 ± 0.021. The surviving fraction came out at 0.76 ± 0.035 in experiment [1] (500 nM); 0.722 ± 0.024 in experiment [1] (1000 nM); 1.02 ± 0.016 in experiment [2] (0.5 nM); 1.01 ± 0.011 in experiment [2] (1 nM); 0.98 ± 0.033 in experiment [2] (5 nM); 1.02 ± 0.013 in experiment [2] (10 nM). In addition, the surviving fraction in experiment [2] (50 nM) was found to be 0.9545 ± 0.0072; in experiment [2] (100 nM), 1.015 ± 0.0096; in experiment [2] (500 nM) it was 0.903 ± 0.036; in experiment [2] (1000 nM), 0.931 ± 0.048.

For HS578T BREAST, the surviving fraction in experiment [1] (0.5 nM) was 0.931 ± 0.14; in experiment [1] (1 nM) it was 0.97 ± 0.1; in experiment [1] (5 nM), 0.786 ± 0.087; in experiment [1] (10 nM), 1.12 ± 0.087; in experiment [1] (50 nM) it was 1.04 ± 0.08; in experiment [1] (100 nM), 1.2 ± 0.049. In addition, the surviving fraction was determined as 1.06 ± 0.075 in experiment [1] (500 nM); 0.998 ± 0.099 in experiment [1] (1000 nM); 1.11 ± 0.14 in experiment [2] (0.5 nM); 0.963 ± 0.32 in experiment [2] (1 nM); 1.15 ± 0.17 in experiment [2] (5 nM); 1.01 ± 0.1 in experiment [2] (10 nM). Moreover, the surviving fraction in experiment [2] (50 nM) is 1.07 ± 0.062; in experiment [2] (100 nM), 1.24 ± 0.11; in experiment [2] (500 nM), 1.19 ± 0.19; in experiment [2] (1000 nM), 1.21 ± 0.15.

As for HS57T BREAST, the surviving fraction in experiment [1] (0.5 nM) came out at 0.884 ± 0.062; in experiment [1] (1 nM) it was 0.87 ± 0.07; in experiment [1] (5 nM), 0.961 ± 0.024; in experiment [1] (10 nM), 0.983 ± 0.04; in experiment [1] (50 nM), 1.01 ± 0.037; in experiment [1] (100 nM), 0.972 ± 0.078. Moreover, the surviving fraction was 0.894 ± 0.066 in experiment [1] (500 nM); 0.888 ± 0.034 in experiment [1] (1000 nM); 1.04 ± 0.086 in experiment [2] (0.5 nM); 1.05 ± 0.088 in experiment [2] (1 nM); 1.12 ± 0.062 in experiment [2] (5 nM); 1.156 ± 0.011 in experiment [2] (10 nM). For the same test system, the surviving fraction in experiment [2] (50 nM) came to 1.12 ± 0.071; in experiment [2] (100 nM), 1.19 ± 0.044; in experiment [2] (500 nM), 1.09 ± 0.038; in experiment [2] (1000 nM), 1.08 ± 0.057.

As for HMT3552 BREAST, the surviving fraction in experiment [1] (0.5 nM) came to 1.12 ± 0.044; in experiment [1] (1 nM), 1.04 ± 0.012; in experiment [1] (5 nM) it was 1.02 ± 0.021; in experiment [1] (10 nM), 1.03 ± 0.051; in experiment [1] (50 nM), 1.21 ± 0.067; in experiment [1] (100 nM) it was 1.09 ± 0.085. Further, the surviving fraction stood at 1.01 ± 0.061 in experiment [1] (500 nM); 0.988 ± 0.057 in experiment [1] (1000 nM); 1.05 ± 0.062 in experiment [2] (0.5 nM); 1.02 ± 0.053 in experiment [2] (1 nM); 1 ± 0.042 in experiment [2] (10 nM); 1.15 ± 0.07 in experiment [2] (50 nM). Moreover, the surviving fraction stood at 1.18 ± 0.061 in experiment [2] (100 nM), 1.18 ± 0.034 in experiment [2] (500 nM) and 1 ± 0.076 in experiment [2] (1000 nM).

For HCC70 BREAST, the surviving fraction in experiment [1] (0.5 nM) was found to be 0.985 ± 0.1; in experiment [1] (1 nM) it was 1.03 ± 0.048; in experiment [1] (5 nM) it was 1.07 ± 0.11; in experiment [1] (10 nM) it was 1.09 ± 0.065; in experiment [1] (50 nM) it was 1.04 ± 0.14; in experiment [1] (100 nM), 1.12 ± 0.045. For the same test system, the surviving fraction in experiment [1] (500 nM) was found to be 1.09 ± 0.091; in experiment [1] (1000 nM), 0.99 ± 0.051; in experiment [2] (0.5 nM), 1.05 ± 0.079; in experiment [2] (1 nM), 1.1 ± 0.027; in experiment [2] (5 nM), 1.08 ± 0.074; in experiment [2] (10 nM) it was 1.06 ± 0.03. Also, the surviving fraction worked out at 1.19 ± 0.091 in experiment [2] (50 nM), 1.18 ± 0.062 in experiment [2] (100 nM), 1.04 ± 0.076 in experiment [2] (500 nM) and 1.03 ± 0.071 in experiment [2] (1000 nM).
